Laboratory results: US20260128119A1, “SCREENING METHODS FOR ACINETOBACTER BAUMANNII SPOT ENZYME MODULATORS” (priority 2022, published 2026)

Tests used:
SpoTAb = assay: HD (ppGpp hydrolysis) activity of SpoTAb in presence of added factors; assay type: biochemical, Acinetobacter baumannii; settings: metal-free full-length SpoTAb (completely HD inactive)
From the text: FIG. 1. Full-length monomeric A. baumannii SpoT adopts a compact “mushroom”-shaped HD-active τ-state. (a) Structure of “mushroom”-shaped SpoTAb-ppGpp complex in the τ-state. The domain organization, from N to C terminus: NTD domains hydrolase (HD), pseudo-synthetase (pseudo-SYNTH) and Core, and CTD domains, TGS, Helical (HEL), Zn-finger (ZFD) and RNA recognition motif (RRM). The ppGpp alarmone is labelled. (b) Cartoon representation the SpoTAb. The “stem” of the mushroom is formed by the enzymatic HD domain and the “cap” by the regulatory domains: NTD pseudo-SYNTH domain and the CTD domains. (c) Ribbon representation of the SpoTAb-ppGpp complex. The α6/α7 motif is held in the hydrolysis-compatible position by the folded Core domain and the TGS β-hairpin, with the Core domain communicating allosteric signals to HD from the regulatory domains. […] (e) Analytical size exclusion chromatography (SEC) of SpoTAb supports its monomeric nature in solution. (f) Experimental X-ray scattering (SAXS) analysis of SpoTAb at 8 mg/mL further confirms the monomeric nature of SpoTAb. […] (g) Ab initio envelope of SpoTAb reconstructed from the experimental SAXS data superimposed on the crystal structure.
While the SYNTH and TGS domains are sequestered in the “cap”, the HD hydrolase stands out unconfined and primed for (p)ppGpp hydrolysis. […]

SpoTAb^NTD = assay: Isothermal titration calorimetry (ITC) of ligand binding to SpoTAb^NTD; design: species or system Acinetobacter baumannii
From the text: This is also the case with the specialisation of SpoTAb as a monofunctional hydrolase where the pseudo-SYNTH domain has evolved into a strictly regulatory/structural domain. […] These involve the residues that coordinate adenosine and guanosine (R249 to N241, R277 to E267 and Y329 to N304) and the majority of phosphate-coordinating groups. Crucially, the catalytic residues D272 and Q347 are substituted for S263 and T321, respectively. […]; Roghanian et al., Mol Cell, 2021).
To directly validate the lack of pppGpp-mediated regulation in SpoTAb, we characterised the interaction between pppGpp and SpoTAb^NTD by ITC. […] Following the experimental approach used earlier for SpoTEc (Roghanian et al., Mol Cell, 2021), we next grafted the allosteric site of A. baumannii RelA (^236RelA^246) onto SpoTAb^NTD (replacing ^201SpoTAb^211).
The essential role of the divalent manganese ion Mn^2+ in (p)ppGpp pyrophosphate hydrolysis is well documented for both Rel (Hogg et al., Cell, 2004; Takada et al., Nucleic Acids Res, 2021; Avarbock et al., Biochemistry, 2000; Van Nerom et al., Acta Crystallogr F Struct Biol Commun, 2019) and SpoTEc (Heinemeyer et al., Eur J Biochem, 1978).

[1] = biological target: the molecule itself; assay: SEC-SAXS and analytical size exclusion chromatography in solution (oligomeric state, self-association)

[Mn+2] [Mn^2+]
HD activity upon addition to metal-free enzyme (SpoTAb): readily restored

Nc1nc2c(ncn2C2OC(COP(=O)(O)OP(=O)(O)OP(=O)(O)O)C(OP(=O)(O)OP(=O)(O)O)C2O)c(=O)[nH]1 (stereo not shown) [pppGpp, guanosine pentaphosphate]
allosteric binding of pppGpp (SpoTAb^NTD): does not bind

Nc1nc2c(ncn2[C@@H]2O[C@H](COP(=O)(O)OP(=O)(O)O)[C@@H](O)[C@H]2O)c(=O)[nH]1 [GDP]
GDP binding by SpoTAb (SpoTAb^NTD): does not bind

B1: Acinetobacter baumannii SpoT enzyme (enzyme)
chain: MPGEEVSQAKQQLKLIIDPYLSVSEVEKVLAACDFGDLAHTGITRKSGEPYILHPIAVSCILANMRLDPETLMAALLHDVIEDTQYTKDDIIERFGQTVAELVDGVTKLSQSSDKEYNKAASFRKILQATLQDPRVIIIKLADRYHNMTTLGALRPDKRARIAQETFDIFVPMARLVGMNEMADNLENLCYQNLDLDMFDNVQNALLQTKPERCKYQSIWEQNLAELLHNYHIQGRIKKKNNNIELLRHFVKNEMDLQELTHSHAFEIVLQSIADCDRLVAALKENFQVIQYQDHIRRPLPGGNQSLMIKLKGEKTTLSLTIQTELMRKAARFGVVLGENAPQTCRSAIQASMQNLNTLIDGECAKTTFNDLLDYLHQEKIWVYTPHGQLHELPQGATVVDFAYSASLFLGNHAVGAKVDGEIKPLSTPLVSGQVIEIITDVLATPNPDWLSFINTQKARRALQHVLKDQDIEEQRLVGAQALSRALKLFNRSINDLSDADWLDLLQWRHIDNKDALFEQIAVGDLLPQLVANHLFANDKHPRAENSDRLIQGTEGIDVKYAHCCNPILGDPIQGHLTRRGLIVHRIRCHNLLHEQHLHPENIMPLQWKADDVDDVRFTAYLAIYMAMNDEQVSDLIYQCRKNNAGVEMVHSNEQRTFVNIVVNNRKHIAKVIRDLRMHYGFPRIERLDAPAPQMEISKVS
notes: Full-length wild-type SpoTAb; also called SpoTAb; A. baumannii SpoT
binding result [1]: no binding (tested: 8 mg/mL)
